This note sets out measurements from patent US6566355B1 (Hoffmann-La Roche Inc., priority 1991, dated 2003).

The target in one test is T1, β-lactamase (Citrobacter freundii, UniProt P05193).
T1 construct: Various β-lactamases can be isolated from penicillin- or cephalosporin-resistant bacterial strains such as; endogenous in cells; host or cells: Citrobacter freundii 1203 (enzyme purified from the crude cell extract, after ampicillin induction when necessary)
The experiment in a line: biochemical. How it is done: A. Isolation of the β-lactamases
Various β-lactamases can be isolated from penicillin- or cephalosporin-resistant bacterial strains such as Klebsiella pneumoniae NCTC 418, Proteus vulgaris 1028, Bacillus licheniformis 749/C, Escherichia coli SN01 and Citrobacter freundii 1203. For this purpose, the corresponding strains are cultivated in Tryptic Soy Broth (Difco) and harvested by centrifugation in the last logarithmic growth phase (when necessary 50-100 mg/l of ampicillin are added to the medium towards the end of the log-phase in order to induce the β-lactamase). The thus-obtained bacterial mass is treated with 20 mM Tris-HCl buffer (pH 7.0); the cells are broken open with a French press while cooling. The mixture is centrifuged (20,000 r/min.) for 20-30 minutes and a clear crude extract is obtained.
B. Determination of the β-lactamase activity
The determination of the activity of the isolated β-lactamases can be carried out according to the method of O'Callaghan, C. H. et al. [Antimicr. Ag. Chemother., 1, 283-288 (1972)] using the chromogenic cephalosporin nitrocefin (87/312 from Glaxo). The requisite test batch contains per ml of water: 50 mM phosphate buffer (pH 7.0), 0.1 mM nitrocefin and sufficient enzyme (β-lactamase) to achieve a ΔA/min. of about 0.1. The cleavage of the substrate, which is accompanied by a change in colour, is effected at 37° C. and is followed quantitatively at 482 nm using a spectral photometer.
C. Determination of the β-lactamase-inhibiting activity of the compounds of general formula I
The above-described cleavage of the chromogenic substrate by β-lactamases (test B.) can be inhibited by the addition of compounds of general formula I (inhibitors). […] As a measurement for the affinity of the particular tested inhibitor to the β-lactamase, which is a measurement of the strength of the inhibitor, there serves that concentration which inhibits by 50% (IC 50 in nM) the cleavage of the substrate (nitrocefin) effected under the above test conditions (test B) in the absence of an inhibitor. […] The determination of the IC50 was effected by means of a graph.
(Test organism: Citrobacter freundii)

Another test concerns Citrobacter freundii. The experiment in a line: MIC in vitro of a 1:4 combination of ceftriaxone with a compound of formula I (test D). The test is classed as cell-based. The protocol:
D. Determination of the β-lactamase-inhibiting activity by combination of a compound of general formula I with ceftriaxone
The minimum inhibitory concentration in vitro (MIC in μg/ml) of a 1:4 combination of ceftriaxone with a compound of formula I against Citrobacter freundii is measured and compiled in Table 2 hereinafter.

[1] abbreviates: 1:4 combination of ceftriaxone with the compound.
[2] abbreviates: IC 50 nM, isolated β-lactamase of Citrobacter freundii, substrate nitrocefin 0.1 mM, 15 minutes pre-incubation with inhibitor, 37° C., pH 7.0.

Where a name gives a salt, the structure may show the parent alone. Read-outs that look alike come from different tables or passages of the source.

T1 sequence (P05193 21-381): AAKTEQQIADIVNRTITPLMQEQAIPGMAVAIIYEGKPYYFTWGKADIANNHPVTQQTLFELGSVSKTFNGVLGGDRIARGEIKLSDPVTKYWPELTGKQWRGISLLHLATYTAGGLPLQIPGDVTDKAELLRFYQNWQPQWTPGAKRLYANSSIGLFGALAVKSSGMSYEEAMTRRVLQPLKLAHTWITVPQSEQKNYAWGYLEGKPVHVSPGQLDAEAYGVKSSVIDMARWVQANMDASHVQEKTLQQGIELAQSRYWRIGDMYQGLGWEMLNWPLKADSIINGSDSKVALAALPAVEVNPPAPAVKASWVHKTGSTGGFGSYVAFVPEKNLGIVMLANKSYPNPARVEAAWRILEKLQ

The compound `O=C(O)C(C(=O)N1CC[C@@H]2[C@H]1C(=O)N2S(=O)(=O)O)c1ccsc1` (mixture of isomers) [6(e), (R/S)-α-(1S,5R)-2-[2-carboxy-2-(3-thienyl)acetyl]-7-oxo-2,6-diazabicyclo[3.2.0]heptane-6-sulphonic acid triethylamine salt (1:1)] registered an IC50 against β-lactamase of 465 nM. Also, the “MIC” value in the test on Citrobacter freundii (setting [1]) came to 4 µg/mL.

The compound `NC(C(=O)N1CC[C@@H]2[C@H]1C(=O)N2S(=O)(=O)O)c1cccc(O)c1` (mixture of isomers) [6(q), (1S,5R)-2-[DL-2-(m-Hydroxyphenyl)glycyl]-7-oxo-2,6-diazabicyclo[3.2.0]heptane-6-sulphonic acid] gave an IC50 on β-lactamase of 375 nM. Also, in the test with Citrobacter freundii (setting [1]), the minimum inhibitory concentration (MIC) is 2 µg/mL.

On to `NC(C(=O)N1CC[C@@H]2[C@H]1C(=O)N2S(=O)(=O)O)c1ccc(O)cc1` (mixture of isomers) [6(s), (1S,5R)-2-[R,S-Amino-(4-hydroxyphenyl)-acetyl]-7-oxo-2,6-diazabicyclo[3.2.0]heptane-6-sulphonic acid sodium salt], for which the IC50 at β-lactamase is 584 nM. Also, the minimal inhibitory concentration (MIC) in the test on Citrobacter freundii (setting [1]) is 4 µg/mL.

As to `NC(C(=O)N1CC[C@@H]2[C@H]1C(=O)N2S(=O)(=O)[O-])c1ccccc1F.[Na+]` (mixture of isomers) [8(c), (1S,5R)-2-[DL-2-(o-Fluorophenyl)glycyl]-7-oxo-2,6-diazabicyclo[3.2.0]heptane-6-sulphonic acid sodium salt], the IC50 at β-lactamase (setting [2]) amounted to 120 nM. In addition, the “MIC” value in the test with Citrobacter freundii (setting [1]) was 2 µg/mL.

Regarding `O=C1SCCC1NC(=O)N1CC[C@@H]2[C@H]1C(=O)N2S(=O)(=O)O` (mixture of isomers) [17(j), (1S,5R)-7-Oxo-2-(R,S)-(2-oxo-3-tetrahydrothienyl-carbamoyl)-2,6-diazabicyclo[3.2.0]heptane-6-sulphonic acid sodium salt], the IC50 against β-lactamase is 79 nM. Besides, the “MIC” value with Citrobacter freundii (setting [1]) came to 2 µg/mL.

Turning to `CCN(CC)CC.Nc1nc(C(N)C(=O)N2CC[C@@H]3[C@H]2C(=O)N3S(=O)(=O)O)cs1` (mixture of isomers) [6(r), (1S,5R)-2-[DL-2-(2-Amino-4-thiazolyl)glycyl] -7-oxo-2,6-diazabicyclo[3.2.0]heptane-6-sulphonic acid triethylamine salt], the “MIC” value with Citrobacter freundii (setting [1]) was determined as 2 µg/mL.

The compound `O=C(NC1CCS(=O)(=O)C1)N1CC[C@@H]2[C@H]1C(=O)N2S(=O)(=O)[O-].[Na+]` (mixture of isomers) [17(x), (1S,5R)-2-[(R) and (S)-1,1-Dioxo-tetrahydrothiophen-3-ylcarbamoyl]-7-oxo-2,6-diaza-bicyclo[3.2.0]heptane-6-sulfonic acid sodium salt] registered an IC50 at β-lactamase (setting [2]) of 199 nM. In the test with Citrobacter freundii (setting [1]), the minimal inhibitory concentration (MIC) was found to be 2 µg/mL.

`O=C(NCC1CCCO1)N1CC[C@@H]2[C@H]1C(=O)N2S(=O)(=O)[O-].[Na+]` (mixture of isomers) [17(y), (1S,5R)-2-[(R) and (S)-Tetrahydrofuran-2-ylmethylcarbamoyl]-7-oxo-2,6-diaza-bicyclo[3.2.0]heptane-6-sulfonic acid sodium salt]: the IC50 at β-lactamase (setting [2]) amounted to 238 nM. In addition, the minimal inhibitory concentration (MIC) with Citrobacter freundii (setting [1]) was determined as 1 µg/mL.

`NC(C(=O)N1CC[C@@H]2[C@H]1C(=O)N2S(=O)(=O)O)c1cccs1` (single isomer, unassigned) [5(e), (1S,5R)-2-[(R or S)-α-Amino-(2-thienyl)acetyl]-7-oxo-2,6-diazabicyclo[3.2.0]heptane-6-sulphonic acid] had an IC50 at β-lactamase of 85 nM. The “MIC” value in the test on Citrobacter freundii (setting [1]) stood at 2 µg/mL.

For the compound `CC(=O)NC(C(=O)N1CC[C@@H]2[C@H]1C(=O)N2S(=O)(=O)O)c1ccccc1` (single isomer, unassigned) [5(g), (1S,5R)-2-[D- or L-N-Acetyl-2-phenylglycyl]-7-oxo-2,6-diazabicyclo[3.2.0]-heptane-6-sulphonic acid sodium salt], the IC50 at β-lactamase was 150 nM. Also, in the test on Citrobacter freundii (setting [1]), the “MIC” value is 8 µg/mL.

Regarding `N[C@@H](C(=O)N1CC[C@@H]2[C@H]1C(=O)N2S(=O)(=O)O)c1ccccc1` [4(b), (1S,5R)-7-Oxo-2-(D-2-phenylglycyl)-6-2,6-diazabicyclo[3.2.0]heptane-6-sulphonic acid], the IC50 on β-lactamase came out at 250 nM. The “MIC” value with Citrobacter freundii (setting [1]) is 2 µg/mL.

For the compound `N[C@H](C(=O)N1CC[C@@H]2[C@H]1C(=O)N2S(=O)(=O)O)c1ccccc1` [4(d), (1S,5R)-7-Oxo-2-(L-2-phenylglycyl)-2,6-diazabicyclo[3.2.0]heptane-6-sulphonic acid], the IC50 against β-lactamase turned out to be 275 nM. For the same compound, the “MIC” value in the test on Citrobacter freundii (setting [1]) turned out to be 2 µg/mL.

Regarding `CC(=O)N/C(=C\c1ccccc1)C(=O)N1CC[C@@H]2[C@H]1C(=O)N2S(=O)(=O)[O-].[Na+]` [5(f), (1S,5R)-2-[(Z)-3-α-Acetamidocinnamoyl]-7-oxo-2,6-diazabicyclo[3.2.0]heptane-6-sulphonic acid sodium salt], the “MIC” value with Citrobacter freundii (setting [1]) came to 16 µg/mL.

Take `CSCC[C@@H](NC(=O)c1ccccc1)C(=O)N1CC[C@@H]2[C@H]1C(=O)N2S(=O)(=O)O.[Na]` [5(h), (1S,5R)-2-[(R,S)-2-Benzamido-4-(methylthio)butyryl]-7-oxo-2,6-diazabicyclo[3.2.0]heptane-6-sulphonic acid sodium salt]: in the test on Citrobacter freundii (setting [1]), the “MIC” value came to 4 µg/mL.

As for `O=C([C@H](O)c1ccccc1)N1CC[C@@H]2[C@H]1C(=O)N2S(=O)(=O)[O-].[Na+]` [6(k), (1S,5R)-2-[(R)-α-Hydroxyphenylacetyl]-7-oxo-2,6-diazabicyclo[3.4.0]heptane-6-sulphonic acid sodium salt (1:1)], the “MIC” value in the test with Citrobacter freundii (setting [1]) came to 8 µg/mL.

On to `CCN(CC)CC.O=C([C@@H](O)c1ccccc1)N1CC[C@@H]2[C@H]1C(=O)N2S(=O)(=O)O` [6(l), (1S,5R)-2-[(S)-α-Hydroxyphenylacetyl]-7-oxo-2,6-diazabicyclo[3.2.0]heptane-6-sulphonic triethylamine salt (1:1)], for which the “MIC” value with Citrobacter freundii (setting [1]) was found to be 8 µg/mL.

With `O=C1[C@H](NC(=O)N2CC[C@@H]3[C@H]2C(=O)N3S(=O)(=O)O)CCN1O` [17(r), sodium salt], the IC50 on β-lactamase (read-out: IC 50 nM, isolated β-lactamase of Citrobacter freundii, substrate nitrocefin 0.1 mM, 15 minutes pre-incubation with inhibitor, 37° C., pH 7.0) is 490 nM.

Consider `O=C(Nc1cccc(O)c1)N1CC[C@@H]2[C@H]1C(=O)N2S(=O)(=O)O` [17(s), (1S,5R)-2-(3-Hydroxyphenylcarbamoyl)-7-oxo-2,6-diazabicyclo[3.2.0]heptane-6-sulphonic acid sodium salt], for which the IC50 against β-lactamase (setting [2]) came to 38 nM.

`O=C1SCC[C@@H]1NC(=O)N1CC[C@@H]2[C@H]1C(=O)N2S(=O)(=O)O` [17(t), (1S,5R)-7-Oxo-2-(S)-(2-oxo-3-tetrahydrothienyl-carbamoyl)-2,6-diazabicyclo[3.2.0]heptane-6-sulphonic acid sodium salt] registered an IC50 against β-lactamase of 53 nM.

As to `O=C(Nc1ccc(O)cc1)N1CC[C@@H]2[C@H]1C(=O)N2S(=O)(=O)O` [17(w), (1S,5R)-2-(4-Hydroxyphenylcarbamoyl)-7-oxo-2,6-diazabicyclo[3.2.0]heptane-6-sulphonic acid sodium salt], the IC50 against β-lactamase (setting [2]) was found to be 109 nM.

As to `CO/N=C(\C(=O)N[C@@H]1C(=O)N2C(C(=O)O)=C(CSc3nc(=O)c(=O)[nH]n3C)CS[C@H]12)c1csc(N)n1` [Ceftriaxone, ceftriaxone, reference compound], in the test on Citrobacter freundii (ceftriaxone alone (control), read-out: MIC), the MIC worked out at 128 µg/mL.

Take `O=C(OCc1ccccc1)N1C[C@@H](Cl)[C@@H]2[C@H]1C(=O)N2S(=O)(=O)O` [Example 15, (1S,4R,5S)-2-Benzyloxycarbonyl-4-chloro-7-oxo-2,6-diazabicyclo[3.2.0]heptane-6-sulphonic acid sodium salt]: on β-lactamase (setting [2]), the IC50 came out at 630 nM.

As for `COC(=O)NN1CC[C@@H]2[C@H]1C(=O)N2S(=O)(=O)[O-].[Na+]` [Example 18, Methyl (1S,5R)-7-oxo-6-sulpho-2,6-diazabicyclo[3.2.0]heptane-2-carbamate sodium salt], in the test on Citrobacter freundii (setting [1]), the “MIC” value was 1 µg/mL.

For `Cn1nnnc1S[C@@H]1CN(C(=O)OCc2ccccc2)[C@@H]2C(=O)N(S(=O)(=O)O)[C@@H]21` [Example 22, (1S,4R,5S)-2-Benzyloxycarbonyl-4-(1-methyl-1H-tetrazol-5-yl-thio)-7-oxo-2,6-diazabicyclo[3.2.0]heptane-6-sulphonic acid sodium salt], at β-lactamase (setting [2]), the IC50 is 220 nM.

“(1S,5R)-(E)-3-Phenyl-acryloyl-2,6-diazabicyclo[3.2.0]heptane-6-sulphonic acid sodium salt [11(a)]”: the “MIC” value in the test with Citrobacter freundii (setting [1]) stood at 8 µg/mL.

One may read the MIC as the smallest concentration in the dilution series that meets the test's criterion for growth inhibition.
